# Earlier results, collected in patent US20180284402A1, “TOPICAL ANALGESIC PAIN RELIEF FORMULATIONS, MANUFACTURE AND METHODS OF USE THEREOF” (priority 2016, published 2018).
# Like-named read-outs stand apart in the source and are kept apart here.
# Assays:
# hTRPA1 [1] = target: T1, hTRPA1 (Homo sapiens, UniProt O75762)
# human TRPM8 (hTRPM8) = human TRPM8 (hTRPM8) (Homo sapiens, UniProt Q7Z2W7); details: Takaishi 2012
# hTRPV1 = hTRPV1 (Homo sapiens, UniProt Q8NER1); details: Takaishi 2012
# hTRPV2 = target: T2, hTRPV2 (Homo sapiens, UniProt Q9Y5S1); details: Takaishi 2012
# T2 sequence (Q9Y5S1 1-764): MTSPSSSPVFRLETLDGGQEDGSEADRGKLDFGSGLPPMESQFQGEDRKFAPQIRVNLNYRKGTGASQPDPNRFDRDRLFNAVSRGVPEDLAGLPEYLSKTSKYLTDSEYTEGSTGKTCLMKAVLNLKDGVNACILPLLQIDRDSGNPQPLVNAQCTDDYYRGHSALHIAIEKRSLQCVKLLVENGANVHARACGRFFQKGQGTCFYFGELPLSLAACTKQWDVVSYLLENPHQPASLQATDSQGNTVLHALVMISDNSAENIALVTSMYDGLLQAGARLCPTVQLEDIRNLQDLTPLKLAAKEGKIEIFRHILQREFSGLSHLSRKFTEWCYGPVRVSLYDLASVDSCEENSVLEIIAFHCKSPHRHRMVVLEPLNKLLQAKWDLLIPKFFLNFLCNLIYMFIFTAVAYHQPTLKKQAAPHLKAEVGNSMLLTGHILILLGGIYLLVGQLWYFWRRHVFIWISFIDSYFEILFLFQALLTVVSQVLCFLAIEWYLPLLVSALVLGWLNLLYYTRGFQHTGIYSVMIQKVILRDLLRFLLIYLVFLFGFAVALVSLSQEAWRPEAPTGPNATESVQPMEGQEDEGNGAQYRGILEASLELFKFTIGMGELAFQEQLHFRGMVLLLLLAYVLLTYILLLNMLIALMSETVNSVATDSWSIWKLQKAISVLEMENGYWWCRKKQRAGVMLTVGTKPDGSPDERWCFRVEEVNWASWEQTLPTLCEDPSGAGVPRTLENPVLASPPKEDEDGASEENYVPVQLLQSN
# hTRPA1 [2] = target: T1, hTRPA1; details: compound at 1 mM; for inhibition of hTRPA1 activation by allyl isothiocyanate (mustard oil): allyl isothiocyanate at 10 uM; for inhibition of hTRPA1 activation by menthol: menthol at 1 mM
# pain and itch responses = details: mice
# TRPV1 = details: Morales-Lazaro 2016
# T1 sequence (O75762 whole entry): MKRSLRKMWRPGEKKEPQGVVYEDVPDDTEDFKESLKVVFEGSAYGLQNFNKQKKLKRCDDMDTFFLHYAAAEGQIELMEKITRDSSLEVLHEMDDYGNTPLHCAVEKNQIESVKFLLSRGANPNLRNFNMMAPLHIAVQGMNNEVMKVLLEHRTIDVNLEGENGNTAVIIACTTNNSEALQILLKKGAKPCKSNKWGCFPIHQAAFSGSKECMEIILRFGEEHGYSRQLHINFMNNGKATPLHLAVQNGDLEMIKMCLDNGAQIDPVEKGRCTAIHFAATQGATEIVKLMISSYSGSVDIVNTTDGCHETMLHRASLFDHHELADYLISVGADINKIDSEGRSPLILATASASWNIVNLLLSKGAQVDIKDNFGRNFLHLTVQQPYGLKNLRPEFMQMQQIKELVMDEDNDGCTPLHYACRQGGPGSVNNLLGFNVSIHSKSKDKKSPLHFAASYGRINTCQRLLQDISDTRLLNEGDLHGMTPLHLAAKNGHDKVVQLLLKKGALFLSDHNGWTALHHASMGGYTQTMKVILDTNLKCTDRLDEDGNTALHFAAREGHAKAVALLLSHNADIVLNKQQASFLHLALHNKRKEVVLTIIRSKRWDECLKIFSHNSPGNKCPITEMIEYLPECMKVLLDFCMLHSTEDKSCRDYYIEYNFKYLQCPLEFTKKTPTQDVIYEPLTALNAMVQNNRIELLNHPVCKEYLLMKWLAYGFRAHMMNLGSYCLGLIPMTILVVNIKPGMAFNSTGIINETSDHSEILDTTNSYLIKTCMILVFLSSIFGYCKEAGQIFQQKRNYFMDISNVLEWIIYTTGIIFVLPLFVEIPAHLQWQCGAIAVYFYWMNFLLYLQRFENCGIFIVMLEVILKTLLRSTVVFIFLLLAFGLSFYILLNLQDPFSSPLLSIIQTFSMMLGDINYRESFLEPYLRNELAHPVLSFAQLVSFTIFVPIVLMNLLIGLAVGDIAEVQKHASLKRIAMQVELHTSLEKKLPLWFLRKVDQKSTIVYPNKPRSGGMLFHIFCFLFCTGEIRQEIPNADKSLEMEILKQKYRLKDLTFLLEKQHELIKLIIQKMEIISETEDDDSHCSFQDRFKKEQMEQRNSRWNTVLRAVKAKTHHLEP
# Sequence of hTRPV1 (Q8NER1 whole entry): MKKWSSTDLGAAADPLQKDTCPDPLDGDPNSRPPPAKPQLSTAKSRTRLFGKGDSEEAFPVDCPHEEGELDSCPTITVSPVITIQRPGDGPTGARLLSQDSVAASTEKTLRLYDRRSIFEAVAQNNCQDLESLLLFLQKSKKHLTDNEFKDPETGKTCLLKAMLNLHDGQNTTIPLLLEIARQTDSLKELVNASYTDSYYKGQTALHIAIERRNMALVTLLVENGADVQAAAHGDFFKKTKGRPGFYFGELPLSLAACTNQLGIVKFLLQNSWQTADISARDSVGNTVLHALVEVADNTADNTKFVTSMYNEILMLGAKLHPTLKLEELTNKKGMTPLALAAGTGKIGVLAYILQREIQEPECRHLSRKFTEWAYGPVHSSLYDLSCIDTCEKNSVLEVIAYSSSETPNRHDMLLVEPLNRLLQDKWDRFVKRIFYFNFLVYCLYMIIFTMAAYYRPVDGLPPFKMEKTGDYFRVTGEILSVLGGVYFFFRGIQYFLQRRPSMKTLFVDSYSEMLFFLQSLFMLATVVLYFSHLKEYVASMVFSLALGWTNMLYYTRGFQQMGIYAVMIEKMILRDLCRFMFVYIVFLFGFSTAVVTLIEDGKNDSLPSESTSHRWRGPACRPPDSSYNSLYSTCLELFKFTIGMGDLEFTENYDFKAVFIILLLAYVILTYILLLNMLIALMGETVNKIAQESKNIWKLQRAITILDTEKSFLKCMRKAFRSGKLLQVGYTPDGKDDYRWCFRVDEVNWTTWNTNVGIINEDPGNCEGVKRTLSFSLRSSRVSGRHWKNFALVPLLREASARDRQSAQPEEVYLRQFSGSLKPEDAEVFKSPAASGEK
# Sequence of human TRPM8 (hTRPM8) (Q7Z2W7 whole entry): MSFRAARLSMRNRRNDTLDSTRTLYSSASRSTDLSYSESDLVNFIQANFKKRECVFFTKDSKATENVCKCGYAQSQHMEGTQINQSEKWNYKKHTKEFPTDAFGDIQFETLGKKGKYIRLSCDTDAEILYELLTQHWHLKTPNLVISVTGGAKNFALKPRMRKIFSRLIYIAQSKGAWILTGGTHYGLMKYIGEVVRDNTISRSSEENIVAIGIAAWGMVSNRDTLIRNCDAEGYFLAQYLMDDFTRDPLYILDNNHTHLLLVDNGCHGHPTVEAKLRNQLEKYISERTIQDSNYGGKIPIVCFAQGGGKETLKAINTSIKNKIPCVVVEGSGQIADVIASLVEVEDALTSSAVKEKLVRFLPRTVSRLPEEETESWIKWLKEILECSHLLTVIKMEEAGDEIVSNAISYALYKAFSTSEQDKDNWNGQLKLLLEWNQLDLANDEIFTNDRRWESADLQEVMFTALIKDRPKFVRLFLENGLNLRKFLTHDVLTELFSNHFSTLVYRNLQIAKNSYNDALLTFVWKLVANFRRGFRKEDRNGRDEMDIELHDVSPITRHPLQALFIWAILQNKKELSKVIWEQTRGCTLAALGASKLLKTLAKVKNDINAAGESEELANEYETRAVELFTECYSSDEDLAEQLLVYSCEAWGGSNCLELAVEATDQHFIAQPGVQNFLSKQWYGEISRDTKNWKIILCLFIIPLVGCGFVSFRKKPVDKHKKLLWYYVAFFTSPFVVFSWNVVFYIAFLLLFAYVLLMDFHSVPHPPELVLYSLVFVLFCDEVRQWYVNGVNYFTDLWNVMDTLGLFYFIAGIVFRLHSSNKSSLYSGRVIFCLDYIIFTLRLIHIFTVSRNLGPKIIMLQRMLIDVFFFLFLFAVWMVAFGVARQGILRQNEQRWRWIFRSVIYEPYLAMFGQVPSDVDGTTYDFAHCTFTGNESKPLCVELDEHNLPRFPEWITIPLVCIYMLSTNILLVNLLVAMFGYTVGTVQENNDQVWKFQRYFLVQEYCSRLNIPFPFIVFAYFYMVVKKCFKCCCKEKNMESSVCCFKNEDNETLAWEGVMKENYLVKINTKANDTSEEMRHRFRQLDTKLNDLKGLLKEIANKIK
activation of hTRPA1 (hTRPA1 [1]; Takaishi 2014),inhibition of hTRPA1 activation by allyl isothiocyanate (mustard oil) (hTRPA1 [2]),inhibition of hTRPA1 activation by menthol (hTRPA1 [2]),SMILES,also measured
did not activate,completely inhibited,completely inhibited,CC1(C)C2CCC1(C)C(O)C2 (stereo not drawn) [borneol],
did not activate,,,CC12CCC(CC1=O)C2(C)C (stereo not drawn) [camphor],
did not activate,completely inhibited,completely inhibited,CC12CCC(C1)C(C)(C)C2O (stereo not drawn) [fenchyl alcohol],

# The remaining lines, values behind:
SMILES,activation of hTRPA1 (hTRPA1 [1]; Takaishi 2014),inhibition of hTRPA1 activation by allyl isothiocyanate (mustard oil) (hTRPA1 [2]),inhibition of hTRPA1 activation by menthol (hTRPA1 [2]),also measured
"CC12CCC(CC1)C(C)(C)O2 [1,8-cineole]",did not activate,,,activation of hTRPA1 (hTRPA1 [1]; Takaishi 2012): without activating; activation of human TRPM8 (hTRPM8) (human TRPM8 (hTRPM8)): activates; activation of hTRPV1 (hTRPV1): did not activate; activation of hTRPV2 (hTRPV2): did not activate
CC1(C)[C@@H]2CC[C@@]1(C)[C@](C)(O)C2 [2-methylosoborneol],did not activate,completely inhibited,completely inhibited,
O=C1CC2CC[C@H]1C2 [norcamphor],did not activate,,,
CCCCCCCC/C=C\CCCCCCCC(=O)O [oleic acid],,,,pain and itch responses (pain and itch responses): inhibited; TRPV1 activity (TRPV1): inhibited
